Assay results published in patent publication US11634418B2, “Amino acid compounds and methods of use” (Pliant Therapeutics, Inc., priority 2016, dated 2023).

Molecular target: recombinant human integrin αvβ6 (Homo sapiens (Human), UniProt P06756+P18564)
Experiment: Solid Phase Integrin αvβ6 Binding Assay
Details: inhibition of recombinant TGFβ1 LAP binding to coated integrin; IC50 given as range
Experimental: Microplates were coated with recombinant human integrin αvβ6 (2 ug/ml) in PBS (100 ul/well 25° C. overnight). The coating solution was removed, washed with wash buffer (0.05% Tween 20; 0.5 mM MnCl2; in 1×TBS). Plate was blocked with 200 ul/well of Block Buffer (1% BSA; 5% sucrose; 0.5 mM MnCl2; in 1×TBS) at 37° C. for 2 h. Dilutions of testing compounds and recombinant TGFβ1 LAP (0.67 ug/ml) in binding buffer (0.05% BSA; 2.5% sucrose; 0.5 mM MnCl2; in 1×TBS) were added. The plate was incubated for 2 hours at 25° C., washed, and incubated for 1 hour with Biotin-Anti-hLAP. Bound antibody was detected by peroxidase-conjugated streptavidin. The IC50 values for testing compounds were calculated by a four-parameter logistic regression.

recombinant human integrin αvβ6, sequence (P06756 31-992): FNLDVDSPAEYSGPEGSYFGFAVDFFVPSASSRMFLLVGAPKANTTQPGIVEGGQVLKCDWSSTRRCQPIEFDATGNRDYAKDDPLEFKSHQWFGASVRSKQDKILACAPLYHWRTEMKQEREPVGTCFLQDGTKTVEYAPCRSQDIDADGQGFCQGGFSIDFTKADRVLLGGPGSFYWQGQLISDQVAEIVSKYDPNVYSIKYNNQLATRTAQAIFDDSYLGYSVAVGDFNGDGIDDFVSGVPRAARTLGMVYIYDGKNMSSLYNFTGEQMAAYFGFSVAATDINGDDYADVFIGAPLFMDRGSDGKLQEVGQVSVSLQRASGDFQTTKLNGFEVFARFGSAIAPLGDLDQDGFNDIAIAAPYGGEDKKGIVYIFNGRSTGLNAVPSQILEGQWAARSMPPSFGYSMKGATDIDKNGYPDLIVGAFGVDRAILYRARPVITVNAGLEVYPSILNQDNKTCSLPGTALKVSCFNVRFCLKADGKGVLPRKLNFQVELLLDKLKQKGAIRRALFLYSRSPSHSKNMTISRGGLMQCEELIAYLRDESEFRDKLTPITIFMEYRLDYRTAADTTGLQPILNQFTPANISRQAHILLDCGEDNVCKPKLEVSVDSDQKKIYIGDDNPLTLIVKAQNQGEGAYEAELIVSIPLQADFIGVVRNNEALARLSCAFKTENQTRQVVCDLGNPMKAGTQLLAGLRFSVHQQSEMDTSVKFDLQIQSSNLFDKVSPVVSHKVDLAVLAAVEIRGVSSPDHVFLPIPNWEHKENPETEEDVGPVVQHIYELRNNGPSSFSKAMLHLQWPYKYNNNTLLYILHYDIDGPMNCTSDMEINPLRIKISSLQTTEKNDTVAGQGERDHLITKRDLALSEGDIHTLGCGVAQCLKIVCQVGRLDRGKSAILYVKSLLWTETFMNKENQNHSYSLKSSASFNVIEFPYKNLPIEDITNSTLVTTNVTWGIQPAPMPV
recombinant human integrin αvβ6, sequence (P18564 22-707): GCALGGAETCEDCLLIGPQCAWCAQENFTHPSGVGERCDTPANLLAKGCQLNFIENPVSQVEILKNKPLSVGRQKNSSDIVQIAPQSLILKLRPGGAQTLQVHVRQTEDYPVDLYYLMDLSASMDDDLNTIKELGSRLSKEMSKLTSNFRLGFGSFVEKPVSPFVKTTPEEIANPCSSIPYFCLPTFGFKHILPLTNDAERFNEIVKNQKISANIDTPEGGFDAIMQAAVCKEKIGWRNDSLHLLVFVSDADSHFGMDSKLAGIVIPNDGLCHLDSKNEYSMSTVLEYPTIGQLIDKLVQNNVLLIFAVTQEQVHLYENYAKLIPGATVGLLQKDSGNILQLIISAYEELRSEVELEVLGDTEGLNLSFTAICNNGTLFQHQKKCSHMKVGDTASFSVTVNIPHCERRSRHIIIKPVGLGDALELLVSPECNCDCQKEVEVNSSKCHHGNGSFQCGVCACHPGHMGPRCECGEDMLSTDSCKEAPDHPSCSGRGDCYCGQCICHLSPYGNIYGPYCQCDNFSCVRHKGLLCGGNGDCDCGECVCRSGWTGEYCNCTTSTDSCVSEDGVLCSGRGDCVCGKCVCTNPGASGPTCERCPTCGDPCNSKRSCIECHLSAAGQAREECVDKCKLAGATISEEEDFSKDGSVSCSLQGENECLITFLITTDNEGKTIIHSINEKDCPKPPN

Row | Structure (SMILES) | IC50 [nM]
1 | Cc1cc(C)n(-c2cccc(C(=O)N[C@@H](CCN3CC(CCc4ccc5c(n4)NCCC5)CC(F)(F)C3)C(=O)O)c2)n1 (stereo partly shown) [Compound 42] | 250 to 4000
2 | Cn1ncc2ccc(C(=O)N[C@@H](CCN3CCC[C@@](F)(CCc4ccc5c(n4)NCCC5)C3)C(=O)O)cc21 [Compound 106] | 50
3 | O=C(N[C@@H](CCN1CCC[C@@](F)(CCc2ccc3c(n2)NCCC3)C1)C(=O)O)C1CCC(F)(F)CC1 [Compound 107] | 50
4 | NCCCc1ccc(CCC2CC3CCC2N3CC[C@H](NC(=O)c2cc(F)cc(C(F)(F)F)c2)C(=O)O)nc1 (stereo partly shown) [Compound 141] | < 50
5 | O=C(O)[C@H](CCN1CC(CCc2ccc3c(n2)NCCC3)C1)NC(=O)[C@@H]1CCCN1Cc1ccccc1 [Compound 143] | > 1000

Next, values leading:

Row | IC50 [nM] | Structure (SMILES)
6 | > 1000 | O=C(N[C@@H](CCN1CCC(NCc2ccc3c(n2)NCCC3)CC1)C(=O)O)C1CCC(F)(F)CC1 [Compound 34]
7 | 250 to 1000 | CC(C)(O)CN1CCCC1C(=O)N[C@@H](CCN1CC(OCCc2ccc3c(n2)NCCC3)C1)C(=O)O (stereo partly shown) [Compound 134]
